Results taken from article PMC9867442, “Indole Derivatives Bearing Imidazole, Benzothiazole-2-Thione or Benzoxazole-2-Thione Moieties—Synthesis, Structure and Evaluation of Their Cytoprotective, Antioxidant, Antibacterial and Fungicidal Activities” (Molecules, 2023).

Assays:
[1] = test system: Micrococcus luteus; experiment: Antibacterial well-diffusion method; type: cell-based; settings: Micrococus luteus, 0.1 mL of compound in DMSO, 48 h, 27 °C
Method: (§1) The antimicrobial properties of compounds were determined against selected bacteria: Micrococcus luteus, Bacillus subtilis, Escherichia coli and Pseudomonas fluorescens which came from the collection of Pure Cultures of the Facility of Microbiology of the Department of Soil Science and Microbiology of the Poznan University of Life Sciences. The well-diffusion method was used to evaluate the antimicrobial properties of compounds. 6 mL each of liquidized broth medium was poured into sterile Petri dishes and allowed to solidify. After which, two sterile glass rings with a diameter of 0.5 cm were placed on the surface of each plate. Then 20 mL each of liquid broth medium containing suspensions of the tested bacterial strains at a density of 10^7 cells/cm3, obtained from 48-h cultures on broth […], was introduced. After the medium solidified, the glass rings were removed with a pencil, obtaining two wells on each plate. 0.1 mL of compound dissolved in pure dimethyl sulphoxide was introduced into one well, and 0.1 mL of pure dimethyl sulphoxide was introduced into the other well, which was as a control. Each compound was tested in four replicates. The plates were incubated for 48 h in a thermostat at 27 °C for M. luteus, B. subtilis and P. fluorescens cultures, and the E. coli culture at 37 °C. At the end of the incubation, the diameters of growth inhibition of the tested strains were measured using calipers.

[2] = test system: Pseudomonas fluorescens; experiment: Antibacterial well-diffusion method; type: cell-based; settings: 0.1 mL of compound in DMSO, 48 h, 27 °C
Method: as §1

[3] = test system: Escherichia coli; experiment: Antibacterial well-diffusion method; type: cell-based; settings: 0.1 mL of compound in DMSO, 48 h, 37 °C
Method: as §1

[4] = test system: Bacillus subtilis; experiment: Antibacterial well-diffusion method; type: cell-based; settings: 0.1 mL of compound in DMSO, 48 h, 27 °C
Method: as §1

[5] = test system: Gloeophyllum trabeum (Gt); experiment: Antifungal agar-plate method; type: cell-based; settings: Gloeophyllum trabeum, read-out: Antifungal activity (inhibition of mycelial growth); for inhibition of growth at 0.0001 %: concentration 0.0001%; for inhibition of growth at 0.001 %: concentration 0.001%; for inhibition of growth at 0.01 %: concentration 0.01%; for inhibition of growth at 0.1 %: concentration 0.1%
Method: (§2) Fungal strains: Coriolus versicolor (Cv), Poria placenta (Pp), Coniophora puteana (Cp) and Gloeophyllum trabeum (Gt) were used as a test organism for the experimental determination of the antifungal activity of 1–11. The fungus were obtained from the collection of the Department of Wood Chemical Technology, Faculty of Forestry and Wood Technology, Poznań, University of Life Sciences, Poland. The fungal growth rates were measured in 90 mm-diameter plastic dishes using the agar-plate method, described by Ważny and Thorton. Five concentrations of gramine and its derivatives in the range of 0.1% to 0.00001% were studied. The compound was applied on the agar (2% agar and 5% malt-extract) prepared on the Petri dish and previously autoclaved. The combination of the compound and fungus was repeated three times. Given sample was centrally inoculated with a 5 mm diameter disc taken from the submargin of 5-day-old malt agar plates. The plates were incubated in darkness at 21 ± 2 °C and 70 ± 5% relative air humidity. The growth duration was determined by the total coverage of the reference plate. The radius of the area covered by the fungus compared with the reference agar plate was employed to calculate the effective doses, ED50, of preservative concentrations retarding the fungal growth rate by 50%.

[6] = test system: Coniophora puteana (Cp); experiment: Antifungal agar-plate method; type: cell-based; settings: Coniophora puteana, read-out: Antifungal activity (inhibition of mycelial growth); for inhibition of growth at 0.0001 %: concentration 0.0001%; for inhibition of growth at 0.001 %: concentration 0.001%; for inhibition of growth at 0.01 %: concentration 0.01%; for inhibition of growth at 0.1 %: concentration 0.1%
Method: as §2

[7] = test system: Poria placenta (Pp); experiment: Antifungal agar-plate method; type: cell-based; settings: read-out: Antifungal activity (inhibition of mycelial growth); for inhibition of growth at 0.0001 %: concentration 0.0001%; for inhibition of growth at 0.001 %: concentration 0.001%; for inhibition of growth at 0.01 %: concentration 0.01%; for inhibition of growth at 0.1 %: concentration 0.1%
Method: as §2

[8] = test system: Coriolus versicolor (Cv); experiment: Antifungal agar-plate method; type: cell-based; settings: Trametes versicolor, read-out: Antifungal activity (inhibition of mycelial growth); for inhibition of growth at 0.0001 %: concentration 0.0001%; for inhibition of growth at 0.001 %: concentration 0.001%; for inhibition of growth at 0.01 %: concentration 0.01%; for inhibition of growth at 0.1 %: concentration 0.1%
Method: as §2

[9] = Ferrous ions (Fe2+) chelating activity (ferrozine); settings: 0.1 mg/mL, 10 min, room temperature
Method: Ferrous ions (Fe^2+) chelating activity was evaluated by inhibition of the formation of Fe^2+-ferrozine complex after incubation of the compounds tested with Fe^2+. The Fe^2+-chelating ability of compounds tested was determined by the absorbance of the ferrous ion-ferrozine complex at 562 nm. In brief, 0.1 mg/mL concentration of the compounds tested in 0.2 mL ethyl alcohol were added to a solution of 0.6 mM FeCl2 (0.05 mL). EDTA (ethylenediaminetetraacetic acid) was used as the standard EDTA chelating agent. The reaction was started by the addition of 5 mM ferrozine (0.05 mL) in ethyl alcohol and shaken vigorously immediately. The samples were stored for 10 min at room temperature (~22 °C). Following incubation, the absorbance (Abs) of the solutions was measured at 562 nm in a spectrophotometer. The percentage of inhibition of ferrozine—Fe^2+ complex formation was calculated using the equation: Fe^2+ chelating effect (%) = [1 − (Abs1/Abs0)] × 100% where Abs0 is the absorbance of the sample without the tested compound and Abs1 is the absorbance in the presence of the compound tested. Each sample was made in triplicate, and three independent experiments were performed.

SMILES	Zone of Growth Inhibition [1]	Zone of Growth Inhibition [2]	Zone of Growth Inhibition [3]	Zone of Growth Inhibition [4]	inhibition of growth at 0.0001 % [5]	inhibition of growth at 0.001 % [5]	inhibition of growth at 0.01 % [5]	inhibition of growth at 0.1 % [5]	inhibition of growth at 0.0001 % [6]	inhibition of growth at 0.001 % [6]	inhibition of growth at 0.01 % [6]	inhibition of growth at 0.1 % [6]	inhibition of growth at 0.0001 % [7]	inhibition of growth at 0.001 % [7]	inhibition of growth at 0.01 % [7]	inhibition of growth at 0.1 % [7]	inhibition of growth at 0.0001 % [8]	inhibition of growth at 0.001 % [8]	inhibition of growth at 0.01 % [8]	inhibition of growth at 0.1 % [8]	also measured
CCc1nccn1Cc1c[nH]c2ccccc12 [Compound 4, 3-((2-ethyl-1H-imidazol-1-yl)methyl)-1H-indole]	8.8 mm	3 mm	3.8 mm	4.3 mm	8%	11%	30%	100%	13%	15%	37%	100%	16%	18%	32%	100%	6%	13%	43%	100%	melting point: 183 to 186 °C
c1ccc2c(Cn3ccnc3)c[nH]c2c1 [Compound 2]	21 mm	14.7 mm	4 mm	3.3 mm	20%	20%	40%	100%	0%	0%	41%	100%	0%	20%	47%	100%	0%	19%	33%	100%	
CC(C)c1nccn1Cc1c[nH]c2ccccc12 [Compound 5, 3-((2-isopropyl-1H-imidazol-1-yl)methyl)-1H-indole]	3 mm	0 mm	3 mm	1.8 mm	12%	16%	17%	100%	13%	14%	26%	100%	1%	6%	21%	100%	13%	12%	43%	100%	melting point: 183 to 185 °C
Clc1ncn(Cc2c[nH]c3ccccc23)c1Cl [Compound 7, 3-((4,5-dichloro-1H-imidazol-1-yl)methyl)-1H-indole]	5 mm	0 mm	4.3 mm	8.7 mm	28%	51%	91%	> 90%	0%	46%	74%		0%	35%	78%		0%	23%	96%	> 90%	Chelating activity [9]: no chelating activity
